# From ChEMBL document CHEMBL3734705, “Synthesis and in vitro cytotoxicity of novel C-12 substituted-14-deoxy-andrographolide derivatives as potent anti-cancer agents” (2015)
# How the values were obtained:
# SR [1] = assay: Cytotoxicity against human SR cells assessed as growth level at 10 uM after 48 hrs by SRB assay; format: functional
# [2] = Cytotoxicity against human HOP92 cells assessed as growth level at 10 uM after 48 hrs by SRB assay; format: functional, HOP-92
# NCI-H322M = assay: Cytotoxicity against human NCI-H322M cells assessed as growth level at 10 uM after 48 hrs by SRB assay; format: functional
# NCI-H522 = assay: Cytotoxicity against human NCI-H522 cells assessed as growth level at 10 uM after 48 hrs by SRB assay; format: functional
# [3] = Cytotoxicity against human HCT15 cells assessed as growth level at 10 uM after 48 hrs by SRB assay; format: functional, HCT-15
# [4] = Cytotoxicity against human SF268 cells assessed as growth level at 10 uM after 48 hrs by SRB assay; format: functional, SF-268
# [5] = Cytotoxicity against human SF539 cells assessed as growth level at 10 uM after 48 hrs by SRB assay; format: functional, SF-539
# M14 [6] = assay: Cytotoxicity against human M14 cells assessed as growth level at 10 uM after 48 hrs by SRB assay; format: functional
# MDA-MB-435 [7] = assay: Cytotoxicity against human MDA-MB-435 cells assessed as growth level at 10 uM after 48 hrs by SRB assay; format: functional
# [8] = Cytotoxicity against human UACC62 cells assessed as growth level at 10 uM after 48 hrs by SRB assay; format: functional, UACC-62
# [9] = Cytotoxicity against human OVCAR4 cells assessed as growth level at 10 uM after 48 hrs by SRB assay; format: functional, OVCAR-4
# [10] = Cytotoxicity against human Caki1 cells assessed as growth level at 10 uM after 48 hrs by SRB assay; format: functional, CAKI-1
# [11] = Cytotoxicity against human DU145 cells assessed as growth level at 10 uM after 48 hrs by SRB assay; format: functional, DU-145
# [12] = Cytotoxicity against human BT549 cells assessed as growth level at 10 uM after 48 hrs by SRB assay; format: functional, BT-549
# MDA-MB-468 [13] = assay: Cytotoxicity against human MDA-MB-468 cells assessed as growth level at 10 uM after 48 hrs by SRB assay; format: functional
# CCRF-CEM = assay: Cytotoxicity against human CCRF-CEM cells after 48 hrs by SRB assay; format: functional
# [14] = Cytotoxicity against human RPMI8226 cells after 48 hrs by SRB assay; format: functional; conditions: RPMI-8226, 48 h
# SR [15] = assay: Cytotoxicity against human SR cells after 48 hrs by SRB assay; format: functional
# A549 = assay: Cytotoxicity against human A549 cells after 48 hrs by SRB assay; format: functional; conditions: A549, 48 h
# [16] = Cytotoxicity against human HCT15 cells after 48 hrs by SRB assay; format: functional; conditions: HCT-15, 48 h
# HT-29 = assay: Cytotoxicity against human HT-29 cells after 48 hrs by SRB assay; format: functional; conditions: HT-29, 48 h
# KM12 = assay: Cytotoxicity against human KM12 cells after 48 hrs by SRB assay; format: functional; conditions: KM12, 48 h
# M14 [17] = assay: Cytotoxicity against human M14 cells after 48 hrs by SRB assay; format: functional; conditions: M14, 48 h
# [18] = Cytotoxicity against human NCI-ADR-RES cells after 48 hrs by SRB assay; format: functional
# [19] = Cytotoxicity against human SKOV3 cells after 48 hrs by SRB assay; format: functional; conditions: SK-OV-3, 48 h
# ACHN = assay: Cytotoxicity against human ACHN cells after 48 hrs by SRB assay; format: functional
# [20] = Cytotoxicity against human Caki1 cells after 48 hrs by SRB assay; format: functional; conditions: CAKI-1, 48 h
# [21] = Cytotoxicity against human BT549 cells after 48 hrs by SRB assay; format: functional; conditions: BT-549, 48 h
# [22] = Cytotoxicity against human HL-60(TB) cells assessed as growth level at 10 uM after 48 hrs by SRB assay; format: functional
# K562 = assay: Cytotoxicity against human K562 cells assessed as growth inhibition at 10 uM after 48 hrs by SRB assay; format: functional; conditions: K562, 48 h, read-out: GI
# [23] = Cytotoxicity against human RPMI8226 cells assessed as growth inhibition at 10 uM after 48 hrs by SRB assay; format: functional; conditions: RPMI-8226, 48 h, read-out: GI
# NCI-H23 = assay: Cytotoxicity against human NCI-H23 cells assessed as growth inhibition at 10 uM after 48 hrs by SRB assay; format: functional; conditions: NCI-H23, 48 h, read-out: GI
# MDA-MB-435 [24] = assay: Cytotoxicity against human MDA-MB-435 cells assessed as growth inhibition at 10 uM after 48 hrs by SRB assay; format: functional; conditions: MDA-MB-435, 48 h, read-out: GI
# SK-MEL-28 = assay: Cytotoxicity against human SK-MEL-28 cells assessed as growth inhibition at 10 uM after 48 hrs by SRB assay; format: functional; conditions: SK-MEL-28, 48 h, read-out: GI
# [25] = Cytotoxicity against human UACC257 cells assessed as growth inhibition at 10 uM after 48 hrs by SRB assay; format: functional; conditions: UACC-257, 48 h, read-out: GI
# [26] = Cytotoxicity against human OVCAR3 cells assessed as growth inhibition at 10 uM after 48 hrs by SRB assay; format: functional; conditions: OVCAR-3, 48 h, read-out: GI
# SN12C = assay: Cytotoxicity against human SN12C cells assessed as growth inhibition at 10 uM after 48 hrs by SRB assay; format: functional; conditions: read-out: GI
# [27] = Cytotoxicity against human DU145 cells assessed as growth inhibition at 10 uM after 48 hrs by SRB assay; format: functional; conditions: DU-145, 48 h, read-out: GI
# T47D = assay: Cytotoxicity against human T47D cells assessed as growth inhibition at 10 uM after 48 hrs by SRB assay; format: functional; conditions: read-out: GI
# MDA-MB-468 [28] = assay: Cytotoxicity against human MDA-MB-468 cells assessed as growth inhibition at 10 uM after 48 hrs by SRB assay; format: functional; conditions: MDA-MB-468, 48 h, read-out: GI
# [29] = read-out: LC50 (the source's name)
smiles,measurement,setting,value
C=C1CC[C@@H]2[C@](C)(COC(C)=O)[C@H](OC(C)=O)CC[C@@]2(C)[C@@H]1CC(Sc1ccccc1)C1=CCOC1=O (mixture of isomers),Activity,SR [1],2.9%
same,Activity,[2],24.5%
same,Activity,NCI-H322M,67.11%
same,Activity,NCI-H522,-80.61%
same,Activity,[3],-38.36%
same,Activity,[4],11.62%
same,Activity,[5],-43.56%
same,Activity,M14 [6],-4.19%
same,Activity,MDA-MB-435 [7],101.38%
same,Activity,[8],-1.75%
same,Activity,[9],100.23%
same,Activity,[10],90.6%
same,Activity,[11],16.39%
same,Activity,[12],-22.62%
same,Activity,MDA-MB-468 [13],-61.07%
same,GI50,CCRF-CEM,0.26 µM
same,TGI,CCRF-CEM,1.19 µM
same,CC50,CCRF-CEM; [29],> 100 µM
same,GI50,[14],0.34 µM
same,LC50,[14],> 100 µM
same,TGI,[14],2.73 µM
same,GI50,SR [15],0.55 µM
same,TGI,SR [15],3.66 µM
same,CC50,SR [15]; [29],> 100 µM
same,GI50,A549,2.73 µM
same,LC50,A549,> 100 µM
same,TGI,A549,7.77 µM
same,GI50,[16],0.87 µM
same,LC50,[16],6.98 µM
same,TGI,[16],2.59 µM
same,GI50,HT-29,1.77 µM
same,LC50,HT-29,8.03 µM
same,TGI,HT-29,3.77 µM
same,GI50,KM12,1.4 µM
same,LC50,KM12,6.25 µM
same,TGI,KM12,2.96 µM
same,GI50,M14 [17],1.47 µM
same,LC50,M14 [17],9.23 µM
same,TGI,M14 [17],3.69 µM
same,GI50,[18],2.1 µM
same,LC50,[18],> 100 µM
same,TGI,[18],11 µM
same,GI50,[19],4.44 µM
same,TGI,[19],16.8 µM
same,CC50,[19]; [29],> 100 µM
same,GI50,ACHN,1.34 µM
same,LC50,ACHN,6.01 µM
same,TGI,ACHN,2.84 µM
same,GI50,[20],2.77 µM
same,LC50,[20],> 100 µM
same,TGI,[20],11.5 µM
same,GI50,[21],1.59 µM
same,TGI,[21],3.99 µM
same,CC50,[21]; [29],> 100 µM
same,Activity,[22],-46.54%
C=C1CC[C@@H]2[C@](C)(CO)[C@H](O)CC[C@@]2(C)[C@@H]1C/C=C1/C(=O)OC[C@H]1O [ANDROGRAPHOLIDE],Activity,SR [1],79.53%
same,Activity,[2],107.7%
same,Activity,NCI-H322M,92.74%
same,Activity,NCI-H522,17.13%
same,Activity,[3],61.89%
same,Activity,[4],97.66%
same,Activity,[5],83.41%
same,Activity,M14 [6],84.88%
same,Activity,MDA-MB-435 [7],72.62%
same,Activity,[8],69.92%
same,Activity,[9],82.87%
same,Activity,[10],96.7%
same,Activity,[11],80.06%
same,Activity,[12],87.11%
same,Activity,MDA-MB-468 [13],42%
same,inhibition of growth at 10 µM,K562,34.5%
same,inhibition of growth at 10 µM,[23],16.7%
same,inhibition of growth at 10 µM,NCI-H23,2.11%
same,inhibition of growth at 10 µM,MDA-MB-435 [24],27.4%
same,inhibition of growth at 10 µM,SK-MEL-28,4.54%
same,inhibition of growth at 10 µM,[25],23.5%
same,inhibition of growth at 10 µM,[26],40.8%
same,inhibition of growth at 10 µM,SN12C,18.3%
same,inhibition of growth at 10 µM,[27],19.9%
same,inhibition of growth at 10 µM,T47D,12.2%
same,inhibition of growth at 10 µM,MDA-MB-468 [28],58%
same,Activity,[22],100.04%
